These results are taken from ChEMBL document CHEMBL1140535, “Synthesis and evaluation of substituted benzoisoquinolinones as potent inhibitors of Chk1 kinase” (Bioorg Med Chem Lett, 2007).

Calls of active or inactive are those of the source. The rule behind the calls is not given here.

The subject of one test is NCI-H1299. Kind of test: Inhibition of camptothecin induced mitotic arrest in human NCI-H1299 cells after 18 hrs. In kind it is functional, cell-based. Particulars: NCI-H1299, 18 h.
For test [1], the target named is T1, Serine/threonine-protein kinase Chk1 (Homo sapiens, UniProt O14757).
T1 sequence (O14757 whole entry): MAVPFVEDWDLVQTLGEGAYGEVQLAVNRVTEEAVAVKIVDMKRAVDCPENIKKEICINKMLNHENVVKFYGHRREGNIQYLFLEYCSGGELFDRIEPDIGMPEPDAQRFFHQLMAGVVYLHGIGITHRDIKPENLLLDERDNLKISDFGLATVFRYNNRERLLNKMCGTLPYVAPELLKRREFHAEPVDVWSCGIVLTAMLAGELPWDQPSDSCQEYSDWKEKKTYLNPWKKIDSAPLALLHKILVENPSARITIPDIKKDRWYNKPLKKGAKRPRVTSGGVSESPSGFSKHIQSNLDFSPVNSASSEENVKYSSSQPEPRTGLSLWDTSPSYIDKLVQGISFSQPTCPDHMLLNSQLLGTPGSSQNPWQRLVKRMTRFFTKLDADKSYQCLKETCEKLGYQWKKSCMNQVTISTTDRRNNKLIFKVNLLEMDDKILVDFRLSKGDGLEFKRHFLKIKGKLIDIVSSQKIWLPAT
In words: Inhibition of human Chk1 expressed in baculovirus by time-resolved fluorescence assay.

Test [2] concerns HT-29. In words: Effect on apoptosis in HT29 cells assessed as increase in caspase 3 activation after 24 hrs. In kind it is functional, cell-based. Particulars: Homo sapiens.
The subject of test [3] is HT-29. In words: Effect on apoptosis in HT29 cells assessed as increase in camptothecin induced caspase 3 activation after 24 hrs. The note with it: Homo sapiens. It counts as functional, cell-based.

Take `NCCCc1cc2cc[nH]c(=O)c2c2cc(-c3ccn[nH]3)ccc12`: the EC50 (as a rule, the concentration at which the effect is half-maximal) in the test with NCI-H1299 came out at 150 nM. Besides, the concentration for half-maximal inhibition (IC50) (commonly the concentration that gives 50% inhibition) in test [1] was found to be 4.3 nM.

For the compound `COC(=O)c1cc2cc[nH]c(=O)c2c2cc(Br)ccc12`, the half-maximal inhibitory concentration (IC50) in test [1] was 300 nM.

In the test with NCI-H1299, `NCCCc1cc2cc[nH]c(=O)c2c2cc(-c3ccc(CN)cc3)ccc12` displayed a 50% effective concentration (EC50) of 1080 nM. The compound also displayed an IC50 in test [1] of 6.5 nM.

For the compound `NCCc1cc2cc[nH]c(=O)c2c2cc(-c3cn[nH]c3)ccc12`, the outcome in the test on HT-29 [2] was inactive. The same compound returned an EC50 in the test with NCI-H1299 of 79 nM. Besides, inhibition in test [1] was half-maximal at 3 nM (IC50). In addition, the result with HT-29 [3] was Active.

The compound `O=c1[nH]ccc2cc(CCO)c3ccc(Br)cc3c12` had a half-maximal inhibitory concentration (IC50) in test [1] of 780 nM.

In the case of `N#Cc1cc2cc[nH]c(=O)c2c2cc(Br)ccc12`, in test [1], half-maximal inhibition (IC50) was put at 400 nM.

Compound `O=c1[nH]ccc2c3[nH]c(-c4ccccc4)nc3c3ccc(F)cc3c12` registered an IC50 in test [1] of 1080 nM.

For the compound `NCCc1cc2cc[nH]c(=O)c2c2cc(-c3ccc[nH]3)ccc12`, in the test on NCI-H1299, the EC50 came out at 14 nM. For the same compound, it took 0.5 nM to reach half-maximal inhibition in test [1] (IC50).

Turning to `NCCCc1cc2c(Br)c[nH]c(=O)c2c2cc(-c3cn[nH]c3)ccc12`, in the test on NCI-H1299, the EC50 came to 140 nM. Moreover, half-maximal inhibition in test [1] (IC50) was put at 2.3 nM.

Compound `NCCCc1cc2c(-c3ccc(F)cc3)c[nH]c(=O)c2c2cc(-c3cn[nH]c3)ccc12` gave an EC50 in the test with NCI-H1299 of 370 nM. In test [1], this compound showed an IC50 of 3.5 nM.

Compound `NCCCc1cc2c(-c3cccc(F)c3)c[nH]c(=O)c2c2cc(-c3cn[nH]c3)ccc12` gave a concentration for a half-maximal effect (EC50) in the test with NCI-H1299 of 300 nM. The compound also gave an IC50 in test [1] of 3.7 nM.

Regarding `NCCCc1cc2c(-c3ccc(Cl)cc3Cl)c[nH]c(=O)c2c2cc(-c3cn[nH]c3)ccc12`, a half-maximal effect with NCI-H1299 (EC50) was put at 270 nM. Further, in test [1], inhibition was half-maximal at 1.2 nM (IC50).

Compound `CN(C)CCNC(=O)c1ccc2c(CCCN)cc3cc[nH]c(=O)c3c2c1` registered an EC50 with NCI-H1299 greater than 10000 nM. For the same compound, the half-inhibitory concentration (IC50) in test [1] stood at 2 nM.

In test [1], `NCCc1cc2cc[nH]c(=O)c2c2cc(Cl)ccc12` came in with a half-inhibitory concentration (IC50) of 11 nM.

In the case of `O=c1[nH]ccc2c3[nH]c(-c4cccnc4)nc3c3ccc(F)cc3c12`, the concentration for half-maximal inhibition (IC50) in test [1] is 110 nM.

The compound `NCCCc1cc2cc[nH]c(=O)c2c2ccccc12` had an IC50 in test [1] of 98 nM.

For the compound `N#Cc1cc2cc[nH]c(=O)c2c2cc(Cl)ccc12`, half-maximal inhibition in test [1] (IC50) was put at 1060 nM.

In the case of `O=c1[nH]ccc2cc(CO)c3ccc(Br)cc3c12`, the concentration for half-maximal inhibition (IC50) in test [1] was determined as 440 nM.

Take `C=Cc1c[nH]c(=O)c2c1cc(CCCN)c1ccc(-c3cn[nH]c3)cc12`: a half-maximal effect in the test with NCI-H1299 (EC50) was put at 210 nM. The compound further came in with an IC50 in test [1] of 3.6 nM.

As for `N#Cc1ccc2c(CCCN)cc3cc[nH]c(=O)c3c2c1`, in the test with NCI-H1299, the EC50 stood at 2200 nM. For the same compound, the IC50 in test [1] was determined as 25 nM.

Regarding `NCCCc1cc2cc[nH]c(=O)c2c2cc(Cl)ccc12`, the EC50 in the test on NCI-H1299 worked out at 230 nM. This compound also yielded an IC50 in test [1] of 12 nM.

`NCCCc1cc2c(-c3cccc(Cl)c3)c[nH]c(=O)c2c2cc(-c3cn[nH]c3)ccc12` had an EC50 with NCI-H1299 of 1050 nM. This compound displayed an IC50 in test [1] of 11.5 nM.

In turn, `NCCCc1cc2c(-c3ccc(O)cc3)c[nH]c(=O)c2c2cc(-c3cn[nH]c3)ccc12` gave an EC50 in the test on NCI-H1299 of 47 nM. The same compound registered an IC50 in test [1] of 0.3 nM.

`NCCc1cc2cc[nH]c(=O)c2c2cc(-c3ccn[nH]3)ccc12`: the response in the test on NCI-H1299 was half-maximal at 100 nM (EC50). The IC50 in test [1] turned out to be 2.5 nM.

The compound `CN(C)CCc1cc2cc[nH]c(=O)c2c2cc(Br)ccc12` showed a half-inhibitory concentration (IC50) in test [1] of 130 nM.

For the compound `NCCCc1cc2cc[nH]c(=O)c2c2cc(C(N)=O)ccc12`, the EC50 in the test with NCI-H1299 was greater than 10000 nM. This compound also showed an IC50 in test [1] of 11 nM.

In the test on NCI-H1299, `NCCCc1cc2cc[nH]c(=O)c2c2cc(-c3cn[nH]c3)ccc12` yielded an EC50 of 64 nM. The same compound showed an IC50 in test [1] of 3.5 nM.

In the case of `O=c1[nH]ccc2ccc3ccc(Cl)cc3c12`, the IC50 in test [1] is 580 nM.

With `NCCCc1cc2c(-c3ccccc3Cl)c[nH]c(=O)c2c2cc(-c3cn[nH]c3)ccc12`, the EC50 with NCI-H1299 worked out at 130 nM. Further, in test [1], the IC50 came to 0.8 nM.

Compound `O=c1[nH]ccc2c3[nH]cnc3c3ccc(F)cc3c12` yielded a concentration for half-maximal inhibition (IC50) in test [1] of 610 nM.

In the test on NCI-H1299, `NCCCc1cc2c(-c3ccccc3F)c[nH]c(=O)c2c2cc(-c3cn[nH]c3)ccc12` gave an EC50 of 370 nM. In test [1], this compound yielded an IC50 of 2.6 nM.

Turning to `NCCc1cc2cc[nH]c(=O)c2c2cc(Br)ccc12`, in test [1], half-maximal inhibition (IC50) required 3 nM.

In turn, `NCCCc1cc2cc[nH]c(=O)c2c2cc(-c3ccc[nH]3)ccc12` returned an EC50 in the test with NCI-H1299 of 44 nM. Moreover, half-maximal inhibition in test [1] (IC50) was put at 2.4 nM.

The compound `NCCCc1cc2cc[nH]c(=O)c2c2cc(Br)ccc12` had a concentration giving a half-maximal response (EC50) in the test with NCI-H1299 of 310 nM. This compound had a concentration for half-maximal inhibition (IC50) in test [1] of 17 nM.

As to `N#CCCc1cc2cc[nH]c(=O)c2c2cc(Cl)ccc12`, half-maximal inhibition in test [1] (IC50) was put at 510 nM.

In the case of `COC(=O)c1cc2cc[nH]c(=O)c2c2cc(Cl)ccc12`, half-maximal inhibition in test [1] (IC50) required 360 nM.

The compound `N#CCCc1cc2cc[nH]c(=O)c2c2cc(Br)ccc12` showed a concentration for half-maximal inhibition (IC50) in test [1] of 420 nM.

In turn, `NCCCc1cc2c(-c3ccccc3)c[nH]c(=O)c2c2cc(-c3cn[nH]c3)ccc12` showed a concentration giving a half-maximal response (EC50) with NCI-H1299 of 140 nM. The same compound showed an IC50 in test [1] of 2 nM.

As to `NCCCc1cc2c(-c3ccc(Cl)cc3)c[nH]c(=O)c2c2cc(-c3cn[nH]c3)ccc12`, the midpoint of the response with NCI-H1299, the EC50, lay at 320 nM. The half-inhibitory concentration (IC50) in test [1] was found to be 1.2 nM.

Compound `Cn1cc(-c2ccc3c(CCCN)cc4cc[nH]c(=O)c4c3c2)cn1` yielded an EC50 in the test with NCI-H1299 of 957 nM. The IC50 in test [1] was 9.2 nM.

Compound `NCCCc1cc2c(-c3ccccc3O)c[nH]c(=O)c2c2cc(-c3cn[nH]c3)ccc12` registered an EC50 in the test with NCI-H1299 of 230 nM. The compound also displayed an IC50 in test [1] of 2 nM.

Compound `NCCc1cc2cc[nH]c(=O)c2c2cc(-c3ccc(CN4CCOCC4)cc3)ccc12` displayed an EC50 in the test with NCI-H1299 of 130 nM. In test [1], the IC50 stood at 0.6 nM.

Turning to `NCCCc1cc2c(-c3cccc(O)c3)c[nH]c(=O)c2c2cc(-c3cn[nH]c3)ccc12`, it took 67 nM to reach a half-maximal effect in the test with NCI-H1299 (EC50). In test [1], this compound gave a 50% inhibitory concentration (IC50) of 1 nM.

With `CNCCc1cc2cc[nH]c(=O)c2c2cc(Br)ccc12`, in test [1], the IC50 was 44 nM.
